{"source": "patent US20060154903A1", "about": "“Betulinol derivatives as anti-cancer agents” (priority 2004, published 2006)", "key": {"[1]": {"system": "human fibroblast cell line", "type": "cell-based", "conditions": "Fibroblasts; for Percent Killed: Prostate (1); for Growth Inhibition %: 1 × 10^−5", "procedure": "(§1) The human prostate cancer LNCaP, PC-3, and DU-145 cell lines, as well as human fibroblast cell line, were obtained from the American Type Culture Collection (“ATCC”) and maintained in RPMI-1640, F-12k, and MEM mediums, respectively, supplemented with 10% FBS. Cell lines were maintained at 37° C. under a humidified atmosphere and 5% CO2 for testing of the cytotoxicity of betulinol derivatives. The cytotoxicity assay was performed using MTT assay according to the instructions of ATCC protocol. Cells 1×10^5 in 0.1 ml/well were plated in 96-well culture plates (Costar) and incubated with a different dilution of betulinol derivatives for 24, 48, and 72 hours. Ten μl of 3-[4,5-dimethylthiazol-2-yl]-2,5 diphenyl tetrazolium bromide was added into each well at the end of each incubation period. The reaction product, formazan, was dissolved in the detergent, and the absorbance was read at 540 nm (Ref)."}, "Bladder cancer cells": {"system": "Bladder cancer cells", "conditions": "1 × 10^−4 M; Bladder (1), cell line not given"}, "LNCaP xenografts": {"system": "LNCaP xenografts", "type": "in vivo, athymic mice", "procedure": "All the animal studies were performed according to the guidelines and approval of the Institutional Animal Care and Use Committee and Research Animal Resource Center of Weill Medical College of Cornell University, New York. Twelve mice of 13 weeks of age were purchased from The National Cancer Institute (NCI) and were housed in a pathogen-free environment under controlled conditions of light and humidity and with free access to food and water. LNCaP cells were grown in RPMI-1640 with 10% FBS until 80-90% confluent. Cells were scraped into PBS and collected by centrifugation. The LNCaP cell pellets were suspended in Matrigel (Ref) at 2.5×10^7 cells/ml. Mice were injected subcutaneously (“s.c.”) with 200 μl (5×10^6 cells) of the cell suspension at one site on the flank. Visible tumor grew after 7-8 days following implantation and mice were divided into three groups of four mice each.\nMice received s.c. injection daily for ten days. […] Tumors were measured daily with calipers, and tumor volumes were calculated by the formula: π/6(1×w×h). Animals were also weighed daily and monitored for general health status and vital signs of possible toxicity due to treatment. At the end of the treatment period, the animals were sacrificed and tumors were excised, weighed and prepared for immunohistochemical and histological studies. […]"}, "[2]": {"system": "human prostate cancer LNCaP cell line", "experiment": "MTT cytotoxicity assay, LNCaP", "type": "cell-based", "conditions": "for Percent Killed / inhibition at 100 µM / inhibition at 10 µM / inhibition at 1 µM / Growth Inhibition %: LNCaP; for Percent Killed: Prostate (1); for inhibition at 100 µM / inhibition at 10 µM / inhibition at 1 µM: Homo sapiens, read-out: Growth Inhibition %; for inhibition at 1 µM: 1 × 10^−6 M; for Growth Inhibition %: 1 × 10^−5 (Table 12)", "procedure": "as §1\nHowever, these compounds were not tested on prostate cancer LNCaP cell line by NCI. […] The anti-tumor activity of the compounds was determined at three doses and the total growth inhibition kill effect as pertinent of the control at 24, 48, and 72 hours as presented in Table 11."}, "[3]": {"system": "human prostate cancer PC-3 cell line", "experiment": "MTT cytotoxicity assay, PC-3", "type": "cell-based", "conditions": "for Percent Killed: Prostate (1); for Growth Inhibition %: 1 × 10^−5", "procedure": "as §1"}, "PC-3": {"system": "PC-3", "experiment": "Anchorage-independence growth assay in soft agar, PC-3", "type": "cell-based", "conditions": "Homo sapiens, 336 h, 1 × 10^−5 M, 14 days, read-out: Inhibition % on Anchorage-independent Growth", "procedure": "(§2) Anchorage-independence growth assay was performed to determine the ability of cancer cells to form colonies in soft agar. 1.0×10^4 cancer cells were suspended in 2 ml of DMEM medium containing 0.33% agar in the presence or absence of betulinol derivatives. The compounds were overlaid on a 2 ml matrix made up of 0.6% agar. The cultures were incubated at 37° C. in a humidified environment under 5% CO2 for 14 days without medium change. The cultures were fixed in Comoy's fixative (acetic acid/100% ethanol 1:3 v/v) and the numbers of anchorage-independent, tridimentional colonies (≧40 μm diameter) formed were counted under 10× magnification (Katdare et al., Cancer Lett. 111:141-47 (1997), which is hereby incorporated by reference in its entirety)."}, "184B5/HER": {"system": "184B5/HER", "experiment": "In vitro cytotoxicity, Breast (1), 184B5/HER", "type": "cell-based", "conditions": "1 × 10^−4 M"}, "LNCaP": {"system": "LNCaP", "experiment": "Anchorage-independence growth assay in soft agar, LNCaP", "type": "cell-based", "conditions": "Homo sapiens, 336 h, 1 × 10^−5 M, 14 days, read-out: Inhibition % on Anchorage-independent Growth", "procedure": "as §2"}, "[4]": {"experiment": "Solubility in DMSO diluted with culture medium (GC)", "conditions": "for State of solution: 0.5 mg/mL (1 × 10^−3 mol/L), culture medium", "procedure": "The residue was dissolved in chloroform analyzed on GC.\nEthyl ether was then evaporated. […] Concentration of drug in the above solutions was analyzed by GC and determined from the standard solubility curve."}, "[5]": {"experiment": "Solubilization in PBS containing human γ-globulin, human albumin and ethanol", "conditions": "for Observation: 1 × 10^−3 mol/L", "text": "Human γ-Globulin and human albumin are two major biocompatible components in human serum."}, "[6]": {"system": "human prostate cancer DU-145 cell line", "experiment": "MTT cytotoxicity assay, DU-145", "type": "cell-based", "conditions": "for Percent Killed: Prostate (1); for Growth Inhibition %: 1 × 10^−5", "procedure": "as §1"}, "DU-145": {"system": "DU-145", "experiment": "Anchorage-independence growth assay in soft agar, DU-145", "type": "cell-based", "conditions": "Homo sapiens, 336 h, 1 × 10^−5 M, 14 days, read-out: Inhibition % on Anchorage-independent Growth", "procedure": "as §2"}}, "note": "Like-named read-outs stand apart in the source and are kept apart here."}
{"molecule": "C=C(C)C1CCC2(C(=O)O)CC[C@]3(C)[C@H](CC[C@@H]4[C@@]5(C)CCC(=O)C(C)(C)[C@@H]5CC[C@]43C)C12", "note": "(some centres unmarked) [Compound 4, Betulonic Acid]", "values": [{"measurement": "Percent Killed", "setting": "[1]; 1 × 10^−4 M", "value": "No effect"}, {"measurement": "Percent Killed", "setting": "[1]; 1 × 10^−5 M", "value": "No effect"}, {"measurement": "Growth Inhibition %", "setting": "[1]; 24 hours", "value": 0, "unit": "%"}, {"measurement": "Growth Inhibition %", "setting": "[1]; 48 hours", "value": 0, "unit": "%"}, {"measurement": "Percent Killed", "setting": "Bladder cancer cells", "value": 37, "unit": "%"}, {"measurement": "health status and vital signs of the mice during treatment", "setting": "LNCaP xenografts; mouse, in vivo", "value": "no adverse effects on vital signs"}, {"measurement": "increase of tumor volume on day 10 compared to day 1", "setting": "LNCaP xenografts; s.c. daily for ten days, 20 mg/kg, LNCaP xenografts in athymic mice", "value": 20.3, "unit": "%"}, {"measurement": "Percent Killed", "setting": "[2]; 1 × 10^−4 M", "value": 81, "unit": "%"}, {"measurement": "Percent Killed", "setting": "[2]; 1 × 10^−5 M", "value": 75, "unit": "%"}, {"measurement": "inhibition at 100 µM", "setting": "[2]; 24 h, 24 hours, 1 × 10^−4 M", "value": "70.4 ± 19.1", "unit": "%"}, {"measurement": "inhibition at 10 µM", "setting": "[2]; 24 h, 24 hours, 1 × 10^−5 M", "value": "24.2 ± 10.8", "unit": "%"}, {"measurement": "inhibition at 1 µM", "setting": "[2]; 24 h, 24 hours", "value": "9.2 ± 6.1", "unit": "%"}, {"measurement": "inhibition at 100 µM", "setting": "[2]; 48 h, 48 hours, 1 × 10^−4 M", "value": "81 ± 12.6", "unit": "%"}, {"measurement": "inhibition at 10 µM", "setting": "[2]; 48 h, 48 hours, 1 × 10^−5 M", "value": "69.5 ± 20.2", "unit": "%"}, {"measurement": "inhibition at 1 µM", "setting": "[2]; 48 h, 48 hours", "value": "27.8 ± 11.4", "unit": "%"}, {"measurement": "inhibition at 100 µM", "setting": "[2]; 72 h, 72 hours, 1 × 10^−4 M", "value": "80.8 ± 15.8", "unit": "%"}, {"measurement": "inhibition at 10 µM", "setting": "[2]; 72 h, 72 hours, 1 × 10^−5 M", "value": "88.4 ± 7.96", "unit": "%"}, {"measurement": "inhibition at 1 µM", "setting": "[2]; 72 h, 72 hours", "value": "45 ± 12.3", "unit": "%"}, {"measurement": "Growth Inhibition %", "setting": "[2]; 24 hours", "value": "38 ± 8", "unit": "%"}, {"measurement": "Growth Inhibition %", "setting": "[2]; 48 hours", "value": "75 ± 9", "unit": "%"}, {"measurement": "kill effects on LNCaP cell growth compared to the other compounds", "setting": "[2]; MTT assay, compounds 1-8", "value": "highest kill effects"}, {"measurement": "Percent Killed", "setting": "[3]; 1 × 10^−4 M", "value": 54, "unit": "%"}, {"measurement": "Percent Killed", "setting": "[3]; 1 × 10^−5 M", "value": 41, "unit": "%"}, {"measurement": "Growth Inhibition %", "setting": "[3]; 24 hours", "value": 9.7, "unit": "%"}, {"measurement": "Growth Inhibition %", "setting": "[3]; 48 hours", "value": 41.1, "unit": "%"}, {"measurement": "inhibition at 10 µM", "setting": "PC-3", "value": 26.1, "unit": "%"}, {"measurement": "Percent Killed", "setting": "184B5/HER", "value": "Toxic"}, {"measurement": "inhibition at 10 µM", "setting": "LNCaP", "value": 0, "unit": "%"}, {"measurement": "State of solution", "setting": "[4]; 3% DMSO in total Vol.", "value": "Suspension"}, {"measurement": "State of solution", "setting": "[4]; 9% DMSO in total Vol.", "value": "Suspension"}, {"measurement": "State of solution", "setting": "[4]; 14% DMSO in total Vol.", "value": "Cloudy"}, {"measurement": "State of solution", "setting": "[4]; 20% DMSO in total Vol.", "value": "clear solution"}, {"measurement": "State of solution", "setting": "[4]; 20% DMSO in total Vol., listed as BA", "value": "Clear"}, {"measurement": "amount dissolved out of 3 mg", "setting": "[4]; 1% DMSO in culture medium containing 10% FBS, nominal 1×10^−3 mol/L", "value": 0.4, "unit": "mg"}, {"measurement": "Observation", "setting": "[5]; ethanol 220 μL, γ-globulin PBS 1.48 mL, albumin PBS 0.49 mL", "value": "Cloudy"}, {"measurement": "Observation", "setting": "[5]; ethanol 280 μL, γ-globulin PBS 0 mL, albumin PBS 2.50 mL", "value": "Complete"}, {"measurement": "Observation", "setting": "[5]; ethanol 280 μL, γ-globulin PBS 2.50 mL, albumin PBS 0 mL", "value": "Suspension"}, {"measurement": "Observation", "setting": "[5]; ethanol 308 μL, γ-globulin PBS 0.69 mL, albumin PBS 2.07 mL", "value": "Almost Clear"}, {"measurement": "Observation", "setting": "[5]; ethanol 330 μL, γ-globulin PBS 1.48 mL, albumin PBS 1.48 mL", "value": "Little Cloudy"}, {"measurement": "Observation", "setting": "[5]; ethanol 352 μL, γ-globulin PBS 0.32 mL, albumin PBS 2.85 mL", "value": "Clear"}, {"measurement": "concentration completely dissolved", "setting": "[5]; PBS containing 4% human albumin, final concentration of 10% ethanol", "value": "1×10^−3 mol per liter"}, {"measurement": "concentration completely dissolved", "setting": "[5]; human albumin PBS solution with 10% ethanol", "value": 0.001, "unit": "mol/L"}, {"measurement": "Percent Killed", "setting": "[6]; 1 × 10^−4 M", "value": 54, "unit": "%"}, {"measurement": "Percent Killed", "setting": "[6]; 1 × 10^−5 M", "value": 51, "unit": "%"}, {"measurement": "Growth Inhibition %", "setting": "[6]; 24 hours", "value": 33, "unit": "%"}, {"measurement": "Growth Inhibition %", "setting": "[6]; 48 hours", "value": 51, "unit": "%"}, {"measurement": "inhibition at 10 µM", "setting": "DU-145", "value": 12.5, "unit": "%"}]}
